Series [1] can be described thus: Peptide-induced (Arg-Arg) assembly of AuNPs-citrate, TEM/MANTA/UV-Vis. The conditions noted are these: water. The text has this: Formation of AuNP assemblies. In this study, we investigated the possibility of forming convenient and reversible AuNPs assemblies using only elementary 15 nm AuNPs-citrate suspended in water and short peptides without the need for a complex surface modification. Peptides were used because they are relatively bulky and thus their steric prevented the particles from entering a permanent aggregated state. Arginine in particular can strongly interact with citrate anions via electrostatic interactions. A dipeptide containing two repetitions of arginine (Arg-Arg or RR) was thus used to interact with multiple particles at the same time and induce assembly.
Multispectral advanced nanoparticles tracking analysis (MANTA) was then used to confirm the size increase: The initial blue scattering corresponding to a hydrodynamic diameter of 40±25 nm (FIG. 1C) transformed immediately into red scattering corresponding to a hydrodynamic diameter of approximately 467±120 nm (FIG. 1D). Importantly, the count of particles decreased by more than 90%—from 2.5×10^5/mL to 2×10^4/mL, thus confirming that the vast majority of the AuNPs-citrate were aggregated. TEM images at different magnifications are seen in the supporting information (FIG. 10 and FIG. 11).
AuNPs Assembly and Dissociation Assembly. Typically, 1 mL of AuNPs-citrate at OD=1.5 was mixed with 50 μL of Arg-Arg (100 μM) to provoke the AuNPs assembly. The color of the suspensions rapidly changed from red to blue. The assembled AuNPs (Arg-Arg-AuNPs) were stable over time when stored at 4° C. and could be used for dissociation even month after their assembly.
The optical absorption measurements were collected using a hybrid multi-mode microplate reader (Synergy™ H1 model, BioTek Instruments, Inc.) in a 96-well plate. The dissociation of assembly was characterized by measuring the ratio of the absorbance at 520 nm or 530 nm and 700 nm or 820 nm for 20 nm NPs or 40 nm NPs, respectively.
The multispectral advanced nanoparticle tracking analysis (MANTA) is a technique that builds images from the particles' light scattering via three lasers of different wavelengths (for example, blue, green, and red); the wavelength of scattering depends on nanoparticle size. Thus, small particles (less than, or <, 100 nm) appear blue while larger particles appear greener or redder. MANTA uses these images to count the nanoparticles and calculate their size based on Brownian motion. MANTA was performed with the VIEWSIZER 3000™ (Horiba Scientific, USA). The temperature was set to 25° C. during the measurement. Automated noise analysis determines the optimal wavelength for representing each nanoparticle. Here, 8-bit composite videos were generated, and 10 videos were used per analysis (300 frames for seconds). A quartz cuvette with minimum volume of 1 mL was used for the measurement and the AuNPs concentrations was set up at 0.04 nM.

A short description of series [2]: RRK-based aggregation of citrate-coated AuNPs. The conditions noted are these: for particle aggregation of AuNPs: peptides from 0.5 to 30 μM. The text has this:
To induce reversible aggregation of the AuNPs, we used positively charged Arg and Lys-based peptide residues (i.e., RRK). The RRK peptide could induce plasmonic coupling by electrostatic attractions between negatively charged citrate molecules and guanidine and amine groups in RRK (FIG. 36a).^8,19 The size of AuNPs increased upon addition of RRK peptides, as confirmed by transmission electron microscopy (TEM) and dynamic light scattering (DLS) (FIG. 36b and FIG. 42). […] Raman spectroscopy observed the appearance of C—C stretching at 984 cm^−1 and C—N stretching at 1443 cm^−1 from Arg residues in RRK (FIG. 36d).^20 Lastly, R, RRK, and RRKRRK (SEQ ID NO:13) peptides (from 0.5 to 30 μM) were used to induce AuNP aggregates to study the impact of charge number on particle aggregation. […] A higher positive charge number can decrease the critical coagulation concentration (CCC).^7 RRK peptide was chosen in this study because particle aggregation induced by a strong cationic peptide (i.e., RRKRRK) (SEQ ID NO:13) can result in irreversible aggregation.
(§1) Briefly, 10 μM of RRK peptide was used to aggregate 100 μL of AuNPs (conc approximately 3.6 nM). The particle aggregation rapidly occurred (less than 10 s), changing color from red to blue. Then the desired dissociation peptides were used to dissociate the AuNP aggregates. It is notable that these exemplary AuNPs are stabilized by citrate. Different surface ligands (for example, BSPP) and different sizes (40 or 60 nm) require different amounts of RRK peptide for particle aggregation.

A short description of series [3]: Colloidal stability of the dissociated AuNPs (aggregation parameter). It is filed as physicochemical. Particulars: for colloidal stability of peptide-capped AuNPs: NaCl 0.5 to 2 μM (so in the source), absorbance 520/600 nm. How it is done:
We further studied the role of Glu, Lys, and Pro amino acids in A1 peptides (FIG. 37h). For example, Pro-based spacer can provide a rigid and self-assembling monolayer (SAM) that increases the colloidal stability of AuNPs.^28 When the spacer was moved to the site between Glu and Lys residues (i.e., A5), the dissociation capacity was 50% lower than A1 peptide. […] A1 peptide without Lys (i.e., A7) decreased to 30% of the dissociation capacity likely due to the decrease in grafting kinetics of thiol-Au bonds and hydration layers.^22,25 Lastly, the dissociated AuNPs were incubated in different concentrations ([…]) of NaCl to examine colloidal stability of the dissociated AuNPs (FIG. 37i).
Pro-, Ala-, and Gly-based spacers have different hydrophobic and hydrophilic natures, rigidity, and flexibility.^22,29 For example, Pro residue is more hydrophobic and rigid (i.e, low mobility) while Gly residue is more hydrophilic and flexible. To investigate the impact of the rigidity and hydrophilicity of the peptides on the particle dissociation, we synthesized A1, A10, and A11 peptides that have different spacers: PP, AA, GG (FIG. 38a-b and FIG. 49). We also synthesized the peptide without a spacer (i.e., A9) to confirm the impact of the spacer on particle dissociation. […] We further compared colloidal stability of the dissociated AuNPs by A1, A9, A10, and A11 peptides. The dissociated AuNPs were incubated in NaCl (from […]) for 1 h and measured variations of absorbance between 520 nm and 600 nm.
This exemplary dissociation strategy can also improve colloidal stability of plasmonic nanoparticles. […] Lastly, this exemplary dissociation strategy is less affected by matrix interference. We replaced the sample matrix with 100% human plasma, urine, saliva, and seawater after RRK-based AuNPs aggregation. After adding dissociation peptides, reversible aggregation still occurred, leading to a blue-shift of the plasmonic resonance peak; this in turn changes color from blue to red in 100% human plasma, urine, saliva, and seawater (FIG. 40j-k and FIG. 27).

In series [4] the target is SARS-CoV-2 main protease (Mpro) (Severe acute respiratory syndrome coronavirus 2, UniProt P0DTD1).
Series [5] is described as follows: Peptide-enabled dissociation of RRK-induced AuNP aggregates. The protocol:
After inducing AuNP aggregates by the RRK peptides, the A1 peptides with different concentrations from 7 to 300 μM were used to dissociate AuNP aggregates. The plasmonic resonance peak of AuNP aggregates blue shifted to 520 nm after particle dissociation. (FIG. 37b). The hydrodynamic diameter of AuNP aggregates (greater than (>) 1 μm) was reduced to 27±0.07 nm, and the surface charge of AuNPs was—13.4±1.03 mV because of surface modification with neutral charged A1 peptides (150 μM) and residual citrates (FIG. 37c). Particle dissociation induced color change from blue to red and a decrease in size as confirmed by time-dependent photographs, multi-laser wavelength nanoparticle tracking analysis (M-NTA), and TEM (FIG. 37d-e and FIG. 45A-C).
To further study the role of each amino acid in the A1 peptide, we synthesized eight peptide sequences (from A2 to A8) for control experiments (FIG. 46A-H). Table 1 includes peptide sequence, net charge, critical dissociation concentrations (CDC), and design rationale. First, we replaced Cys residue with Gly (i.e., A2) to confirm the role of the anchoring group. […] Second, we hypothesized that negatively charged EE residues were required for particle dissociation because they provide electrostatic repulsions for citrate-coated AuNPs.
as §1
Briefly, RRK peptides (8-10 μM) was first used to trigger AuNP aggregation in distilled water. The sample was centrifuged at […] for 5 min to remove the supernatant. Then, the pellet was re-dispersed in 100% human saliva, plasma, urine, and seawater. After re-dispersion, the desired amounts of dissociation peptide were used to dissociate AuNPs aggregates in different matrixes. […] The experiment was performed with three replicates, and the microplate reader was used to measure spectral scanning from 300 to 900 nm before and after dissociation. The ratiometric signal (λ520/λ700) was referred as dissociation. The data was blanked to remove background signal.

Series [6] is described as follows: Dissociation efficiency of HS-PEG6-OCH3 for alternative assembly conditions or coating ligands. Particulars: high concentration (>100 μM) of HS-PEG6-OCH3.
Protocol: First, peptide-free conditions were used to promote the assembly of AuNPs-citrate and its dissociation with HS-PEG6-OCH3 was evaluated (FIG. 3A). Here, salts were added to AuNPs-citrate to induce aggregation via disruption of the electrostatic repulsion forces between the particles. […] Unlike the peptide Arg-Arg, these ions cannot sterically prevent the AuNPs from falling in an irreversible aggregated state.
AuNPs with different coating ligands were also evaluated and compared to citrate: bis(p-sulfonatophenyl)phenylphosphine (BSPP), mercaptobenzoic acid (MBA), or thiolated PEG-COOH (HS-PEG-COOH; Mw=634 g·mol^−1). […] This is because MBA and HS-PEG-COOH make covalent Au—S bonds with the gold surface that prevent subsequent grafting of HS-PEG6-OCH3.
Finally, an alternative control peptide was used for assembly (Cys-Arg-Lys).
For a further series, the system named is trypsin. Nature of the series: Trypsin sensing with HS-PEG-peptide conjugates and Arg-Arg-AuNPs assemblies. It is filed as biochemical. How it is done:
Peptides containing the motif Arg-Arg-Lys (RRK) were thus conjugated to a thiolated PEG capped with a carboxyl group (HS-PEG12-COOH, Mw=634 Da) via EDC/NHS cross-linking reaction. Three peptides based on the motif RRK were investigated and the number of RRK repetitions varied from 1 to 3 to increase the mass and charge of the resulting HS-PEG-peptide conjugate (FIG. 6A).
From concentrations of 10 μM, HS-PEG12-COOH is capable to dissociate 100% of the assemblies (FIG. 21). However, the conjugation of the peptides to the HS-PEG12-COOH was expected to decrease its capacity to dissociate the assemblies as it increases its size and charge. In this context, the addition of the HS-PEG-peptide conjugates to AuNPs assemblies could not generate a colorimetric signal. However, in the presence of trypsin, the proteolytic cleavage could progressively remove the amino acids residues from the conjugate, thus reducing its size and charge that would restore the dissociation capacity. A colorimetric signal, proportional to the trypsin activity, could thus be observed (FIG. 6B).
Typically, 1 mL of HS-PEG12-COOH (HS—(CH2CH2O)12—CH2CH2COOH, 634 Da, 1 mM) dissolved in MES buffer (10 mM, pH=5.5) was activated via the addition of 100 μL of EDC (50 mM, MES) and 40 μL of NHS (500 mM, MES). The reaction was stirred at room temperature for one hour. After one hour, 1 mL of peptide (or NH2-molecule) (1 mM) dissolved in PBS (100 mM, pH=7.4) was added to the activated HS-PEG12-COOH. The reaction was stirred for 4 hours at room temperature and then stored at 4° C.
Typically, 5 μL of the PEG-peptide conjugate (0.44 mM) were added to 5 μL of PBS 1×. […] At the end of the incubation, 100 μL of aggregated AuNPs (Arg-Arg-AuNPs) were added, and a color change proportional to the trypsin concentration was observed. UV-Vis spectra were recorded 30 minutes later.

Values joined by “and” are separate entries in the source; they are usually repeats but may differ in a detail not shown here. Equal values may be shown once. Where no end group is shown, it is not given here.

As to `N=C(N)NCCC[C@H](N)C(=O)O` [R, arginine, reference compound], the “induction of assembly of AuNPs-citrate” value in series [1] is given as “could not induce any form of assembly”. For the same compound, the “particle aggregation of AuNPs” value in series [2] is “did not aggregate”.

Regarding “Ace-CGGKKEEAVLQSGFR-Am (Ac-CGGKKEEAVLQSGFR-NH2) [Peptide A18]”, the “colloidal stability in extreme conditions” value in series [3] (DMEM, human plasma, saliva, human urine, NaCl 0.5 to 2M) is “maintained high colloidal stability”. Moreover, in series [4], the CDC entry is “at least 40 μM”; the “LoD for Mpro” value is 12.3 nM and 16.7 nM and 16.4 nM; the specificity test entry is reported as “only Mpro dissociated AuNP aggregates”.

Take Ace-EEKKC-Am [Peptide A9]: the “colloidal stability of peptide-capped AuNPs” value in series [3] is recorded as “relatively low colloidal stability”.

In the case of Ace-EEKKPPC-Am [Peptide A1], the “time to dissociate AuNP aggregates” value in series [5] (>150 μM peptide, ratiometric signal λ520/λ700) was determined as 20 min. The “hydrodynamic diameter after dissociation” value in series [5] (A1 peptide 150 μM, aggregates >1 μm before) stood at 27±0.07 nm. The “CDC” value was 150 µM in series [5] (critical dissociation concentration, X (no dissociation)) and 40 µM in series [5] (spacer comparison PP, AA, GG). In addition, the “colloidal stability of peptide-capped AuNPs” value in series [3] is “higher colloidal stability than citrate-coated AuNPs”.

As to Arg-Arg-Lys [RRK], in series [2], the “particle aggregation of AuNPs” value is “effectively induced particle aggregation”. In addition, in series [2] (red-shifted from 520 nm), the “plasmonic resonance peak after addition of peptide” value amounted to 648 nm.

For Cys-Arg-Lys [reference compound], the “dissociation of the assembly by HS-PEG6-OCH3” value in series [6] is recorded as “irreversible”.

On to “HS-PEG-RRKRRKRRK: HS-PEG12-COOH conjugated to peptide RRKRRKRRK via EDC/NHS (also: HS-PEG12 conjugated via EDC/NHS, site not given here)”, for which the “dissociation capacity of the intact conjugate” value with trypsin (titrated to Arg-Arg-AuNPs, up to >100 μM, no trypsin) is reported as “total quenching of the dissociation capacity”. For the same compound, in the series with trypsin (trypsin 10 μM, 37° C., 24 h), the “dissociation capacity after digestion with trypsin” value is “restored”.

As for RRKRRK, the “particle aggregation of AuNPs” value in series [2] is reported as “effectively induced particle aggregation”.

The values are drawn from patent publication US20260071252A1, “REVERSIBLE NANOPARTICLE AGGREGATES AND METHODS FOR DETECTING PROTEASES” (The Regents of the University of California, priority 2022, published 2026).
